We go through two compounds from article PMC5608758, “A brain-targeting lipidated peptide for neutralizing RNA-mediated toxicity in Polyglutamine Diseases” (Scientific Reports, 2017).

Data set [1] concerns EGFP CAG78 RNA-expressing HEK293 cells. In kind it is cell-based. Conditions: for suppression of expanded CAG RNA-induced cell death: LDH assay. The procedure: HEK293 cells were cultured at 37 °C with 5% CO2 in DMEM supplemented with 10% FBS and 1% penicillin-streptomycin. Primary rat cortical neurons were isolated and cultured as previously described. Transient transfection of HEK293 cells was performed using Lipofectamine 2000 (Life Technologies). P3V8 were delivered to HEK293 cells using the DeliverX (DX) Peptide Transfection Kit (Affymetrix) 4 hr after DNA transfection. At least two batches of independently synthesized peptides were used in the experiments.
HEK 293 cells were seeded on a 24-well plate at a density of 0.5 × 10^5, and pEGFP CAG78 DNA construct was used to transfect the cells. […] […] Seventy-two hours after treatment, LDH enzyme activity in the cell culture medium was measured as described before. Experimental groups were normalized to the untransfected control. After normalization, data were analyzed using the dose response-inhibition curve (nonlinear regression-variable slope) to determine the IC50 value (Prism6 software, GraphPad Software, Inc.). Each experiment was repeated at least 3 times.

Data set [2] deals with primary rat cortical neurons. Kind of data set: LDH cytotoxicity in primary neurons. In kind it is cell-based. The note with it: 0.01 nM to 1 µM, 72 hr; P3V8 transfected with DeliverX; 3 independent experiments. The procedure: HEK293 cells were cultured at 37 °C with 5% CO2 in DMEM supplemented with 10% FBS and 1% penicillin-streptomycin. Primary rat cortical neurons were isolated and cultured as previously described. Transient transfection of HEK293 cells was performed using Lipofectamine 2000 (Life Technologies). P3V8 were delivered to HEK293 cells using the DeliverX (DX) Peptide Transfection Kit (Affymetrix) 4 hr after DNA transfection. At least two batches of independently synthesized peptides were used in the experiments. […]
cortical neurons. A density of […] of primary rat cortical neurons were seeded on culture […]
and 1000 nM of P3V8 peptide (transfected with DeliverX). The lactate dehydrogenase (LDH) cytotoxicity activity was measured 72 hr post-treatment. Fold change of LDH activity was normalized to untreated cells. Data are expressed as mean ± S.E.M. for 3 independent experiments. NS indicates no significance.
(1 picture or pasted object on this page, not shown here)
The LDH cytotoxicity activity was measured 72 hr post-treatment. Fold change of LDH activity was normalized to untreated cells. Data are expressed as mean ± S.E.M. for 3 independent experiments. NS indicates no significance.

Data set [3] has as its system HEK293 cells. Kind of data set: Cellular uptake studies in HEK293 cells. Conditions: 3 hr, 37 °C, cell lysate, LC/MS, normalized to total protein; for cellular uptake level: 100 nM peptide. In kind it is in vitro ADME. As to the method: HEK293 cells were seeded on a 6-well plate at a density of 6 × 10^5 and cultured overnight at 37 °C with 5% CO2 in DMEM supplemented with 10% FBS and 1% penicillin-streptomycin. Cells were then treated with 100, 500 or 1000 nM of respective peptide at 37 °C for 3 hr. After treatment, the cells were washed with ice-cold PBS and then lysed by 2% SDS solution. Aliquot (100 µl) of the cell lysate was added with 200 µl acetonitrile and centrifuged at 13000 rcf for 10 min to precipitate the proteins. The collected supernatant was subjected to LC/MS analysis. The protein concentration of the cell lysate was measured using a bicinchoninic acid protein assay kit following Sigma’s protocol.

Data set [4] can be described thus: In vitro stability in rat brain homogenate. Format: in vitro ADME. Conditions: for remaining at 1 h, 1000 ng/mL / remaining at 1 h, 2000 ng/mL: incubation 1 hr; for remaining at 1 h, 2000 ng/mL: 100 rpm. As to the method: Sprague-Dawley (SD) rats (male, 180-200 g) were supplied by the Laboratory Animal Services Centre at The Chinese University of Hong Kong. All animal studies were conducted under the approval of the Animal Ethics Committee of The Chinese University of Hong Kong, and were performed in accordance with relevant guidelines and regulations. Blank rat brain homogenate was prepared by ultrasonic probe homogenization (Micoson XL-2000, Misonix, […], USA) of brains collected from the control rats. Blank rat plasma was prepared by centrifugation (8000 rcf for 3.5 min) of blood collected from control rats. […] The mixtures were incubated at 37 °C with 100 rpm in a water bath for 1 or 3 hr. […] The supernatant was collected for LC/MS/MS analysis.

Where [5] appears, read: male, Sprague-Dawley, rat, tissue homogenate, read-out: Percentage of remained.

Entries after “also recorded” stand apart in the source; their conditions may differ. Where two headings read alike, the source gives them in different places. Residues, ends and D or L forms follow the SMILES beside them. *: point of attachment. Palmitoyl = CCCCCCCCCCCCCCCC(=O)*

In the case of `CCCCCCCCCCCCCCCC(=O)N[C@@H](CC(=O)O)C(=O)NCC(=O)N[C@@H](CCCCN)C(=O)N[C@@H](CO)C(=O)N[C@@H](CCCCN)C(=O)NCC(=O)N[C@H](C(=O)N[C@@H](C)C(=O)N[C@@H](Cc1ccc(O)cc1)C(=O)N[C@H](C(=O)N[C@@H](CCC(=O)O)C(=O)N[C@@H](Cc1ccccc1)C(=O)N[C@@H](CCCCN)C(N)=O)[C@@H](C)CC)[C@@H](C)CC` [L1P3V8] (Palmitoyl-DGKSKGIAYIEFK-NH2), the half-maximal inhibitory concentration (IC50) (commonly the point on the concentration scale where inhibition reaches its midpoint) in data set [1] (read-out: IC50, inhibition of cell death (LDH enzyme activity reduced by 50%), peptide added without DeliverX immediately after plasmid transfection, LDH 72 hr after treatment, mean ± S.E.M., at least 3 experiments) was ~100 nM. For the same compound, the “cytotoxicity (LDH release)” value in data set [2] is given as “no cytotoxicity; also recorded: no cytotoxic effects”. Besides, in data set [3], the cellular uptake level result is listed as “low cellular concentration”. Also, the “cellular uptake level compared to P3V8” value in data set [3] (500 nM and 1 µM peptide) is listed as “higher cellular concentration”. In data set [4] (setting [5]), the remaining at 1 h, 500 ng/mL was < 20% and the remaining at 3 h, 500 ng/mL was < 20%. For the same compound, in data set [4] (male, Sprague-Dawley, tissue homogenate, rat brain homogenate, 37 °C, LC/MS/MS, mean ± S.E.M. of 5, read-out: Percentage of remained), the remaining at 1 h, 1000 ng/mL was 22.8 ± 1.2%. In data set [4] (male, Sprague-Dawley, tissue homogenate, rat brain homogenate, 37 °C, incubation 3 hr, LC/MS/MS, mean ± S.E.M. of 5, LLOQ 12.5 ng/mL P3V8, read-out: Percentage of remained), the remaining at 3 h, 1000 ng/mL was determined as 15.8 ± 0.7%. In addition, in data set [4] (male, Sprague-Dawley, tissue homogenate, rat brain homogenate, 2000 ng/mL, 37 °C, LC/MS/MS, mean ± S.E.M. of 5, read-out: Percentage of remained), the remaining at 1 h, 2000 ng/mL is 45 ± 3.5%. In data set [4] (male, Sprague-Dawley, tissue homogenate, rat brain homogenate, 2000 ng/mL, 37 °C, incubation 3 hr, LC/MS/MS, mean ± S.E.M. of 5, LLOQ 12.5 ng/mL P3V8, read-out: Percentage of remained), the remaining at 3 h, 2000 ng/mL turned out to be 21.2 ± 3%.
For Ac-DGKSKGIAYIEFK-NH2 [P3V8], the “suppression of expanded CAG RNA-induced cell death” value in data set [1] (peptide alone, without DeliverX) is “did not exert any cellular effect”; in data set [1] (peptide transfected with DeliverX 4 hr after plasmid transfection), “could effectively alleviate the cytotoxicity”. Besides, in data set [2], the “cytotoxicity (LDH release)” value is listed as “no cytotoxicity; also recorded: no significant cell death”. Moreover, the cellular uptake level entry in data set [3] is listed as “no uptake”. Also, the remaining at 1 h, 500 ng/mL in data set [4] (male, Sprague-Dawley, rat, rat brain homogenate, read-out: Percentage of remained) was < 2.5%. The remaining at 1 h, 1000 ng/mL in data set [4] (male, Sprague-Dawley, rat brain homogenate, 37 °C, LC/MS/MS, mean ± S.E.M. of 5, read-out: Percentage of remained) is 4 ± 1.6%. The remaining at 3 h, 1000 ng/mL in data set [4] (male, Sprague-Dawley, rat brain homogenate, 37 °C, incubation 3 hr, LC/MS/MS, mean ± S.E.M. of 5, LLOQ 12.5 ng/mL P3V8, read-out: Percentage of remained) is < 1.3%. Further, the remaining at 1 h, 2000 ng/mL in data set [4] (male, Sprague-Dawley, rat brain homogenate, 2000 ng/mL, 37 °C, LC/MS/MS, mean ± S.E.M. of 5, read-out: Percentage of remained) was 3.3 ± 0.6%. Further, the remaining at 3 h, 2000 ng/mL in data set [4] (male, Sprague-Dawley, rat brain homogenate, 2000 ng/mL, 37 °C, incubation 3 hr, LC/MS/MS, mean ± S.E.M. of 5, LLOQ 12.5 ng/mL P3V8, read-out: Percentage of remained) is < 0.6%. The Percentage of remained entry in data set [4] (rat brain homogenate, 2000 ng/mL, 37 °C, incubation 3 hr, LC/MS/MS, mean ± S.E.M. of 5, LLOQ 12.5 ng/mL P3V8) was “almost completely degraded”.
